Reference: patent US10723699B2 (Hyundai Pharm Co., Ltd., priority 2015, dated 2020)
Entries after “also recorded” stand apart in the source; their conditions may differ.

Experiments:
[1] = test system: diet-induced obesity (DIO) rat model; test: Changes in weights in diet-induced obesity (DIO) rat model, 4-week administration; format: in vivo, Sprague Dawley (SD) rats; conditions: 10, 20, and 50 mg/kg oral, 4 weeks
Protocol: To simultaneously evaluate both the weight-loss and hypoglycemic effects of the cyclohexene derivative according to the present invention, experiments were carried out, as follows.
(§1) Specifically, male Sprague Dawley (SD) rats (approximately 4 weeks old) in a diet-induced obesity model were fed with a high-fat diet (Lab. Diet Co.) for approximately 10 weeks to induce high-fat diet-induced obesity (DIO). The rats undergoing the high-fat diet were randomly selected, and divided into groups (n=8) for respective administrations. The compounds of Comparative Examples 3 and 4 and Examples 48 and 119 were administered to the divided DIO rats each group for 4 weeks.
(§2) The weights of the DIO rats were measured twice a week during a period of administration of 4 weeks to record a change in the weights. At the end of the 4-week period of administration, a hypoglycemic effect was evaluated using an oral glucose tolerance test (OGTT), as follows.

[2] = test system: diet-induced obesity (DIO) rat model; test: OGTT at the end of the 4-week administration in DIO rat model; format: in vivo, Sprague Dawley (SD) rats; conditions: 50 mg/kg oral; glucose 2 g/kg 30 minutes later; after 4-week administration
Protocol: as §1, §2
Specifically, each of the compounds of Comparative Example 3 (300 mg/kg) and Examples 48 and 119 (10, 20, 50 mg/kg) was administered, and 2 g/kg of glucose was orally administered after 30 minutes of the administration. A blood glucose level was determined using an Accu-Chek Active Strip (Roche diagnostic Co.). In this case, the glucose level in blood collected via caudal venipuncture was measured at time points of −30, 0, 20, 40, 60, and 120 minutes after glucose administration. […]

NCI-H716 cells = test: Promotion of glucagon-like peptide-1 (GLP-1) secretion (ELISA); format: cell-based, human; conditions: 1, 10 and 30 μM-treated groups
Protocol: To evaluate an effect of the cyclohexene derivative according to the present invention on promotion of glucagon-like peptide-1 (GLP-1) secretion, experiments were carried out, as follows.
NCI-H716 cells that were human enterocytes were plated on 12 wells at 1×10^6 cells per well. After 48 hours, the cells were starved in serum-free media for 2 hours, and treated with a varying concentration of siptagliptin that was a dipeptidyl peptidase-IV (DPP-IV) inhibitor, and the compounds of Comparative Example 1 (1, 10, 30 μM), Comparative Example 5 (10 μM), Example 48 (1, 10, 30 μM), and Example 291 (1, 10, 30 μM). After an hour, supernatants are recovered to determine an amount of the secreted GLP-1 peptide. The GLP-1 measurement was performed using an enzyme-linked immunosorbant assay (ELISA; Millipore, EGLP-35K), and the amount of the secreted GLP-1 peptide was indicated by the unit “pM”.

## CC(C)c1noc(N2CCC(COc3ccc(C4=CCC(C(=O)N5CC[C@@H](O)C5)CC4)cc3)CC2)n1 (stereo partly drawn) [Example 48, ((R)-3-hydroxypyrrolidin-1-yl)(4-(4-((1-(3-isopropyl-1,2,4-oxadiazol-5-yl)piperidin-4-yl)methoxy)phenyl)cyclohex-3-enyl)methanone]
[1]
  changes in weights of rats (weight-loss effect): higher weight-loss effect; also recorded: persistent weight loss was observed for 4 weeks
[2]
  hypoglycemic effect: approximately 25%
NCI-H716 cells
  GLP-1 secretion compared with Comparative Example 1: higher level than that of Comparative Example 1
